According to US12036234B2, “Heparin conjugated to collagen-binding peptides for targeting to biological and synthetic tissues” (Northwestern University, priority 2017, dated 2024):
“Also recorded” adds a separate entry of the source. Ends that are not written are not given here.

Key:
Matrigel = assay: Peptide binding to ECM protein coated plates (streptavidin-594 fluorescence); settings: 1000 μM biotinylated peptide
Description: (§1) Peptide and ECM Binding Specificity. Collagens I, II, III, and IV, fibronectin, laminin, and Matrigel were coated onto 96-well black plates at 10 μg/cm^2. Biotinylated CBP or CBPi were added to coated plates at 0, 1, 10, 100, and 1000 μM overnight at 4° C., after which the plates were washed three times with PBS. Fluorescent streptavidin-594 (4 μg/mL) was added to each well and incubated at room temperature for 2 h, then thoroughly washed with PBS. The plates were read with a fluorescence microplate reader for fluorescence intensity (Ex 591 nm, Em 614 nm). All data were normalized to the background fluorescence intensity of Streptavidin-594 alone directed at each coated protein.

collagen III = biological target: T1, collagen III (Homo sapiens, UniProt P02461); assay: as above; settings: biotinylated peptide
T1 construct: purchased Sigma-Aldrich
T1 sequence (P02461 154-1221 limits assumed): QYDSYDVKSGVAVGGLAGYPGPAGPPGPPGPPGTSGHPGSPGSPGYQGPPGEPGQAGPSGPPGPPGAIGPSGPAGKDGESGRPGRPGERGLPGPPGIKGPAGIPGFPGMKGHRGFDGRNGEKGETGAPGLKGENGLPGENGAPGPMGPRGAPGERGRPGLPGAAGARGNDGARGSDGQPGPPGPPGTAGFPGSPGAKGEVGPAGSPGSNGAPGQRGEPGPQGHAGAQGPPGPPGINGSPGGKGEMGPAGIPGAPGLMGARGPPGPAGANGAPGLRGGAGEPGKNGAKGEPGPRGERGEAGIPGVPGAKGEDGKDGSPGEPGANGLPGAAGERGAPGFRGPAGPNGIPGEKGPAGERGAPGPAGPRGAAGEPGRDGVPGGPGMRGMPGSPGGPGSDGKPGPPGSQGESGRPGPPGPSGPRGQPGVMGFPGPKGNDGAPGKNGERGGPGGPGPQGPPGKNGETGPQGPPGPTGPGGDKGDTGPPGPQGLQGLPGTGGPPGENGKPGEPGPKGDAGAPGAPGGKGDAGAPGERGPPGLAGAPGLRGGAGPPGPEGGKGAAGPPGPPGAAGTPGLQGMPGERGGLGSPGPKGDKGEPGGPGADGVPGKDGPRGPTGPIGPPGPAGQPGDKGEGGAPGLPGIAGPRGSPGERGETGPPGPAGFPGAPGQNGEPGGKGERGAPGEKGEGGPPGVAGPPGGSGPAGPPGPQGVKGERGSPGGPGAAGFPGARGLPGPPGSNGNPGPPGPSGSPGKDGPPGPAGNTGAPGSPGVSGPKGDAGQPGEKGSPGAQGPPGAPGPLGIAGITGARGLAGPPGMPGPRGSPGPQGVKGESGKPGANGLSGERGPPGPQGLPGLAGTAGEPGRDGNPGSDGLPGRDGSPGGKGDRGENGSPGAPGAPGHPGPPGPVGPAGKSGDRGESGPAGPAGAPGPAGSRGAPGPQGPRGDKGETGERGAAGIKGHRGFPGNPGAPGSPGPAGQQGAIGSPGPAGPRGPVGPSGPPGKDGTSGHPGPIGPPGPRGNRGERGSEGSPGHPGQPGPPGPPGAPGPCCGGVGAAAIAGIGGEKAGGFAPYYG
Description: as §1

laminin = biological target: T2, laminin (Mus musculus, UniProt P02468+P02469+P19137); assay: as above; settings: 1000 μM biotinylated peptide
T2 construct: purchased Sigma-Aldrich
Description: as §1

collagen II = assay: as above; parameters: species or system chicken; settings: biotinylated peptide
Description: as §1

fibronectin = assay: as above; parameters: species or system human; settings: biotinylated peptide
Description: as §1

[1] = system: Human umbilical vein endothelial cells (HUVECs); assay: Endothelial cell adhesion and retention on modified ECM; format: cell-based; settings: 4 weeks (day 28) in culture
Description: Addition of Endothelial Cells to Modified ECM. Human umbilical vein endothelial cells (HUVECs, Lonza) at passages 3-8 were cultured in EGM-2 and used for cell seeding. The following groups of ECM vascular grafts (1 cm in length each, n=3 per group) were prepared: (1) ECM control alone without heparin or peptide; (2) ECM incubated with free, unconjugated heparin sodium (1 mg/mL); (3) ECM incubated with CBPi conjugated to heparin (1 mg/mL); and (4) ECM incubated with CBP conjugated to heparin (1 mg/mL). HUVECs were seeded twice onto the lumen of each graft (10000 cells/cm^2 at each inoculation) with a 180° rotation of the graft at 30 min after initial seeding. Recellularized grafts were maintained in culture under static condition with medium changed every 2 days.
Cell Number and Viability Measurement. Resazurin was used to assess cell number and viability of HUVECs on ECM grafts over time. 16 Resazurin sodium (44 μM in EGM-2) was added to cell-laden, ECM-modified grafts and incubated for 2 h and the fluorescence intensity (Ex 560 nm, Em 590 nm) was read. The number of cells was calculated based on the fluorescence reading of serially diluted HUVEC suspensions incubated in resazurin solution to develop a standard curve. Prior to performing each measurement, cell seeded grafts were moved to a new low-attachment, multiwell plate to eliminate off target readings from cells that may have migrated off the graft.
Cell Staining and Fluorescence Microscopy. At 4 weeks after cell seeding, each cell-seeded graft was fixed with paraformaldehyde and stained with Phalloidin-488. Fluorescence microscopy (Nikon TE2000U, Japan) was performed on the flattened luminal surface of the graft.

collagen IV = collagen IV (Mus musculus, UniProt P02463+P08122); assay: Peptide binding to ECM protein coated plates (streptavidin-594 fluorescence); parameters: purchased Sigma-Aldrich; settings: 1000 μM biotinylated peptide; relative to background fluorescence at 0 μM
Sequence of collagen IV (P02463 173-1669): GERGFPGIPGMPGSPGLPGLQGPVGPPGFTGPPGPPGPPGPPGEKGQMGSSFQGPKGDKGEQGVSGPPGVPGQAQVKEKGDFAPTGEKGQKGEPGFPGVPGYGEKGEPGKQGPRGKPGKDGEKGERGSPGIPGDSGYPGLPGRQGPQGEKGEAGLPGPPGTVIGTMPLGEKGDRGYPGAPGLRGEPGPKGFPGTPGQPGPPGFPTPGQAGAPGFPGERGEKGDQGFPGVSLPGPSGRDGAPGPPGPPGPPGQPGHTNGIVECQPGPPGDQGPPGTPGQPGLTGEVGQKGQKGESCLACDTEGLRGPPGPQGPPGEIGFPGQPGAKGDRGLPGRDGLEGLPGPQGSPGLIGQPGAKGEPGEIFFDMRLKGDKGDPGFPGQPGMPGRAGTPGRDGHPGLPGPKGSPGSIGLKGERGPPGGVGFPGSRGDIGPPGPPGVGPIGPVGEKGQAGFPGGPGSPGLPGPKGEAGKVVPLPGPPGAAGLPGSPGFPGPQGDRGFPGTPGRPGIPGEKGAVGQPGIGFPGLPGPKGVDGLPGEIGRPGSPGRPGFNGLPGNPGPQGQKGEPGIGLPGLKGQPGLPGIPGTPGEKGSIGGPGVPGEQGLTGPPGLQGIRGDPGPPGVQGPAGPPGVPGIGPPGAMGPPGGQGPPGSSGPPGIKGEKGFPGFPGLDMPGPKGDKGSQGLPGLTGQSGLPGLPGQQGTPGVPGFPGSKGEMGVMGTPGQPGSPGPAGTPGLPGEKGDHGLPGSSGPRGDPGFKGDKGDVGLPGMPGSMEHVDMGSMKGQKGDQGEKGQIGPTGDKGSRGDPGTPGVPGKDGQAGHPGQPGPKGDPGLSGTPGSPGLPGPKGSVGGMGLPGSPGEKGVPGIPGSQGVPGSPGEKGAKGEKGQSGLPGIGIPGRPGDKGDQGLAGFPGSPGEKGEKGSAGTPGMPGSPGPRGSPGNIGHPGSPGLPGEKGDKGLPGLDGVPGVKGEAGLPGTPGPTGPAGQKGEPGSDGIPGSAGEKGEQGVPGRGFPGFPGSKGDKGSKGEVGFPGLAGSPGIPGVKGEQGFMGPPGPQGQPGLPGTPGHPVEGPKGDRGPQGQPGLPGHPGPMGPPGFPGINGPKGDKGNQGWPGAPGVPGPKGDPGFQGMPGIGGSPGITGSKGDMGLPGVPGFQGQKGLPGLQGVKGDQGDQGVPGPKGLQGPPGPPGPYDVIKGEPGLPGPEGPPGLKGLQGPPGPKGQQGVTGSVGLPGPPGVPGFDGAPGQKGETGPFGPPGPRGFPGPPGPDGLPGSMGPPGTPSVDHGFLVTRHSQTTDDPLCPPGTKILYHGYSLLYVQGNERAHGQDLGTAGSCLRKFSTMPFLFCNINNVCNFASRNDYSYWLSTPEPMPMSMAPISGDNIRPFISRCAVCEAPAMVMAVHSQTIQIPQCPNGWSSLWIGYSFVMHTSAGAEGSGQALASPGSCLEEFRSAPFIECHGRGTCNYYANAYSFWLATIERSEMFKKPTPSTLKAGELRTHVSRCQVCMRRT
Sequence of collagen IV (P08122 184-1707): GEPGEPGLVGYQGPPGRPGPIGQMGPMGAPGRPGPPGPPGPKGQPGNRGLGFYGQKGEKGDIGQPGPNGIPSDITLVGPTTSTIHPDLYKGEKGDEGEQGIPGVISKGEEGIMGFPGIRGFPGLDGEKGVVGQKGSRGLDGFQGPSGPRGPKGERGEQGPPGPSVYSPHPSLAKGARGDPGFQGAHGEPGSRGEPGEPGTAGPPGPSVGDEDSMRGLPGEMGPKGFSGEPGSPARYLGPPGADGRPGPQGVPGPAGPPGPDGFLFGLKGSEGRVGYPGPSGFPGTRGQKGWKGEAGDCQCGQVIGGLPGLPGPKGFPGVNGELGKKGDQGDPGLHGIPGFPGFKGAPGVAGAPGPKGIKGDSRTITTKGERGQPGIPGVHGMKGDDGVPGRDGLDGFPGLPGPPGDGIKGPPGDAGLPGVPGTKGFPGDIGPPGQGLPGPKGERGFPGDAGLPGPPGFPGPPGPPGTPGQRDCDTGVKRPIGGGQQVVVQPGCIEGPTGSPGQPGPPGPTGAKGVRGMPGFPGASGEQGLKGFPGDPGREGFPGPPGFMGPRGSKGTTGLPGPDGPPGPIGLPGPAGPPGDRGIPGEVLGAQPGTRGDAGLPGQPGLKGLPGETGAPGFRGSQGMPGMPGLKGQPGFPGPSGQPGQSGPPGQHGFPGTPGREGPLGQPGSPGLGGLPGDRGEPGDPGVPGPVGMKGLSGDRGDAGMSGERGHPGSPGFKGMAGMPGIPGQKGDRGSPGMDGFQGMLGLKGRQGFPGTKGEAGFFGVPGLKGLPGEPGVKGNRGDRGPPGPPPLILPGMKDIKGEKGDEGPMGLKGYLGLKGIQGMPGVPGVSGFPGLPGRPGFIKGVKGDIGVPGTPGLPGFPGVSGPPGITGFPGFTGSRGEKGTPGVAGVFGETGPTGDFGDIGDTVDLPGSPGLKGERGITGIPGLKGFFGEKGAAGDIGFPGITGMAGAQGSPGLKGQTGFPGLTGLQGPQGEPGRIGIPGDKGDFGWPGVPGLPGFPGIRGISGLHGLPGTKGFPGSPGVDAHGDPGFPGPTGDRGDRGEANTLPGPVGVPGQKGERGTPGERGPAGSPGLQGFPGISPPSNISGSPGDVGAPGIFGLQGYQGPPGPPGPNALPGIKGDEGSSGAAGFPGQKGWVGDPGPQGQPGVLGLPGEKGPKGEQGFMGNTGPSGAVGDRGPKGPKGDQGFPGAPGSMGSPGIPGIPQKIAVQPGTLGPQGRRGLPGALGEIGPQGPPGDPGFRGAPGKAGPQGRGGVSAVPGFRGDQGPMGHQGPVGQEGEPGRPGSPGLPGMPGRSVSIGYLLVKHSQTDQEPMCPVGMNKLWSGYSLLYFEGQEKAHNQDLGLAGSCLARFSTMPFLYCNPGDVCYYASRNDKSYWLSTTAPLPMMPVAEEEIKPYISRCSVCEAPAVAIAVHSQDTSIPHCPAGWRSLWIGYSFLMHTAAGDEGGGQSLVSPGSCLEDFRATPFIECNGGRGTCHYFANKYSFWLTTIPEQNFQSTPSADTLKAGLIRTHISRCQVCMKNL
Description: as §1

collagen I = biological target: T3, collagen I (Rattus norvegicus, UniProt P02454+P02466); assay: as above; settings: biotinylated peptide
T3 construct: purchased Sigma-Aldrich
T3 sequence (P02454 152-1207 limits assumed): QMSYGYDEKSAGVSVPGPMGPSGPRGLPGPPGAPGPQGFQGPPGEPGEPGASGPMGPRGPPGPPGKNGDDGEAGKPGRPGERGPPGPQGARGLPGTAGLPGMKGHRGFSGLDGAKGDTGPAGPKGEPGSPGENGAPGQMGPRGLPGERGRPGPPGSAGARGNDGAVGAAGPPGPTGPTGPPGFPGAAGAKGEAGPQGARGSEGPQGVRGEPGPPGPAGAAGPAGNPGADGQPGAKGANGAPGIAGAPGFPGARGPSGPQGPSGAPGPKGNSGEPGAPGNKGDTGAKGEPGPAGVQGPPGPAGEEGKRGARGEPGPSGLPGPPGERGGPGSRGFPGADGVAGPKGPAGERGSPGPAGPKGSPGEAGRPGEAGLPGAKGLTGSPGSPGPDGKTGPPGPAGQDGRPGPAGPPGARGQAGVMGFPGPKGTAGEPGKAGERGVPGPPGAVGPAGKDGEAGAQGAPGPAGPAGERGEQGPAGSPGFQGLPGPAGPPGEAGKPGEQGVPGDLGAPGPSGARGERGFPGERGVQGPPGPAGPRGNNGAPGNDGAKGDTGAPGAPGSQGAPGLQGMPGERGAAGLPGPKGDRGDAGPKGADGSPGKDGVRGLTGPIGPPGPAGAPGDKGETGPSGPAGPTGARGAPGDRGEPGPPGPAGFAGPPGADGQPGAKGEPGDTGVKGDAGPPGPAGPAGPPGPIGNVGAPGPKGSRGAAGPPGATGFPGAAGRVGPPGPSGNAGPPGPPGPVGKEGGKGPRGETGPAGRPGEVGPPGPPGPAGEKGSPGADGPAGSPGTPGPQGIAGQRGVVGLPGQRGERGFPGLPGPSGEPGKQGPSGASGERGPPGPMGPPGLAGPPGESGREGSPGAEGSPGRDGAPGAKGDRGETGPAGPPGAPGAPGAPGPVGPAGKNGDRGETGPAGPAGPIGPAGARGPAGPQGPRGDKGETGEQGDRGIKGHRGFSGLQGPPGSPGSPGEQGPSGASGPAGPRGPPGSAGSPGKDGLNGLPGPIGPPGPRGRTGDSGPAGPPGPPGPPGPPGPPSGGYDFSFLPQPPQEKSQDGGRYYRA
T3 sequence (P02466 86-1125 limits assumed): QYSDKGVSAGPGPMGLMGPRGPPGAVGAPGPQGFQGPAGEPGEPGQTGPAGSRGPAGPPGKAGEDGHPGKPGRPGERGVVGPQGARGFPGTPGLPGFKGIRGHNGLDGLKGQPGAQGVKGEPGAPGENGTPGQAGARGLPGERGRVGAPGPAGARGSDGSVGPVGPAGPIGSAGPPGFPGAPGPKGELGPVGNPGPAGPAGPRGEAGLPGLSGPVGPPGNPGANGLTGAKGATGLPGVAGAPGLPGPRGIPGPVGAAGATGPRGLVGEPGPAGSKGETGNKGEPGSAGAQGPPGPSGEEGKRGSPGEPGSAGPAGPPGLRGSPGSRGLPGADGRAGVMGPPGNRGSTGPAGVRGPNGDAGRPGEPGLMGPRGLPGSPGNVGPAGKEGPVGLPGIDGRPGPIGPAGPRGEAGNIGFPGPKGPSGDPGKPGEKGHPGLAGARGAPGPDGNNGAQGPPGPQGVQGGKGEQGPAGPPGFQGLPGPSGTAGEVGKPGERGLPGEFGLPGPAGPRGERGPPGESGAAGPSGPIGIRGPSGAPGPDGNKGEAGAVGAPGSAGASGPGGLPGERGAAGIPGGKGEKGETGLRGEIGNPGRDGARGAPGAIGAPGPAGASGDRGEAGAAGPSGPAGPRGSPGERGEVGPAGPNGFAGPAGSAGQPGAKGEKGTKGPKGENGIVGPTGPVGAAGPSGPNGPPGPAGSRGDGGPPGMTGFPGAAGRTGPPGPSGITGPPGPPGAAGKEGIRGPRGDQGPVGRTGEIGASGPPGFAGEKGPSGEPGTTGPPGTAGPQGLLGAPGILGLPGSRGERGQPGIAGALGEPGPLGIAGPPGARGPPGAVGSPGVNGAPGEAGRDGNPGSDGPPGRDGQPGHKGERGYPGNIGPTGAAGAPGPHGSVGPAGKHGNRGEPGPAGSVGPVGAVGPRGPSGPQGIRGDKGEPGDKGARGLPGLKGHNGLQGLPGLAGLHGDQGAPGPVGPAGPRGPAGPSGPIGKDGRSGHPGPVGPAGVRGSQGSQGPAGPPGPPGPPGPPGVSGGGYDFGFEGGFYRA
Description: as §1

[2] = system: collagen I and collagen IV in decellularized rat aorta ECM and renal ECM; assay: Streptavidin-594 staining of biotinylated CBP on decellularized tissue; format: binding; settings: biotinylated CBP at 100 μM
Description: FIG. 7: Immunofluorescence staining of collagen I and collagen IV in decellularized rat aorta ECM (A) and renal ECM (C). Streptavidin-594 staining of biotinylated CBP on decellularized rat aorta ECM (B) and renal ECM (D). Scale bar=100 μm.
The binding between collagens (types I and IV) and CBP, is predicted to be mediated by intermolecular forces between discrete amino acids within collagen and CBP^17 that contribute to the binding specificity observed above. The molecular composition of ECM is largely heterogeneous, including fibrous proteins such as collagens, soluble proteins such as fibronectin and laminin, and proteoglycans such as heparan sulfate, keratin sulfate, and chondroitin sulfate.^18 The detailed composition of ECM proteins also varies from tissue to tissue, however, ECM from most tissue types contains collagen I (interstitial matrix) and collagen IV (basement membrane).^18 Each collagen subtype is retained in decellularized tissues, specifically vascular (FIG. 7A) and renal tissues (FIG. 7C). […] Taken together, this delivery strategy using CBP as a localizing moiety specifically targets collagens (type IV in particular) and may be used to selectively carry bioactive molecules to the vasculature where collagen IV defines the subendothelial basement membrane that forms the vascular network, including the macro- and micro-vasculatures within all tissues and organs.

rat aorta ECM = assay: Heparin deposited and retained on aorta ECM (DMMB GAG assay); format: binding; settings: immediately after treatment at 1 mg/mL (t=0)
Description: Heparin Immobilization onto Rat Aorta ECM. All animal experiments and procedures were approved by the Animal Care and Use Committee of Northwestern University and animal care was performed in accordance with the NIH Guide for Care and Use of Laboratory Animals. Male Sprague-Dawley rats weighing 200-250 g (Charles River Laboratories, Chicago, IL) were used as donors to recover the abdominal segment of the aorta. Rat aorta ECM was isolated via decellularization as described 13 using 1% Triton X for 48 h and 1.5% SDS for 48 h at room temperature, followed by 100 U/mL DNase I solution at 37° C. for 4 h. Aorta ECM was subsequently incubated with heparin sodium, CBP-conjugated heparin or CBPi-conjugated heparin (1 mg/mL) overnight at 4° C., followed by three washes with PBS to remove excessive and unbound heparin (FIG. 1B). ECM without heparin incubation served as negative, untreated controls.
Quantification of Heparin Deposited onto ECM. The amount of heparin immobilized onto aorta ECM was quantified using a GAG assay. […] Retention of heparin on ECM after CBP-heparin treatment was assessed by incubating heparinized ECM in endothelial growth medium (EGM-2, Lonza) at 37° C. and measuring the amount of heparin remaining on ECM weekly using a GAG assay. […]

rat platelet rich plasma = assay: Platelet adhesion to modified ECM (LDH assay); format: cell-based; settings: ECM treated at 1 mg/mL
Description: Platelet Adhesion. The thrombogenic properties of modified ECM were evaluated by a platelet adhesion assay described previously.^13 ECM grafts were incubated in diluted rat platelet rich plasma ([…] platelet/mL) at 37° C. for 1 h, rinsed with warm PBS, and lysed with 2% Triton-X. Lactate dehydrogenase (LDH) released into the medium was measured by an LDH assay following the manufacturer's protocol (Roche Molecular Diagnostics, Pleasanton, CA). LDH measured from lysates of serially diluted platelets standardized the assay to quantify the concentration of deposited platelet on ECM.

[3] = system: recalcified porcine blood; assay: Clot formation of recalcified whole blood on ECM grafts
Description: Clot Formation of Recalcified Whole Blood. A recalcified whole blood clotting assay was performed to assess hemocompatibility of ECM grafts treated with or without the addition of heparin, alone or conjugated to CBP/CBPi.^15 Briefly, […] Each sample was weighed before and after incubation with recalcified blood, and the mass of the blood clotted on each sample was calculated and normalized to the weight of the ECM. Each sample containing clotted blood was subsequently embedded in paraffin, sectioned and stained with H&E for microscopic analysis.

[4] = biological target: T4, vascular endothelial growth factor, VEGF (Homo sapiens, UniProt P15692); assay: Growth factor binding to modified ECM (VEGF ELISA); settings: after incubation in EGM-2 for 3 days
T4 construct: purchased Lonza (component of EGM-2 medium)
T4 sequence (P15692 27-191 isoform P15692-4): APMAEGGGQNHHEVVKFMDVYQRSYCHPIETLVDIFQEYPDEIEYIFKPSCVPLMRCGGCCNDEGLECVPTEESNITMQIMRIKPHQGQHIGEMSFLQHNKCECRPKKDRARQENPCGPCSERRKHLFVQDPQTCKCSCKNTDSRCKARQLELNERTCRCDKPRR
Description: Growth Factor Binding to Modified ECM. ECM samples treated with PBS alone, heparin alone, CBPi-heparin, or CBP-heparin were incubated in EGM-2 (containing 2 ng/mL recombinant human vascular endothelial growth factor, VEGF) for 3 days and washed with PBS to measure the degree of VEGF recruited to heparin modified ECM. ECM grafts before and after EGM-2 incubation were weighed and proteins were extracted as previously described using a urea buffer. 13 The amount of VEGF was measured using an ELISA for human and rat VEGF (Thermo Fisher, Waltham, MA).

factor Xa = settings: unconjugated heparin sodium; cited from earlier work

Substance	binding to Matrigel (Matrigel)	binding to collagen III (collagen III)	binding to laminin (laminin)	binding to collagen II (collagen II)	binding to fibronectin (fibronectin)	adherent endothelial cells on ECM grafts [1]	adherent endothelial cells on ECM grafts ([1]; listed as BCPi)	increase in surface fluorescence intensity on collagen IV coated surface (collagen IV)	binding to collagen I coated surfaces (collagen I)	colocalization with collagens in decellularized vascular and renal tissue [2]	glycosaminoglycan (heparin) content of ECM (rat aorta ECM)	reduction in the number of adherent platelets compared to PBS-treated ECM (rat platelet rich plasma)	blood clots observed on ECM grafts (H&E) ([3]; decellularized vascular ECM grafts)	mass of clot/mass of ECM×100% ([3]; treated ECM with recalcified blood, 30 min point)	VEGF concentration within ECM grafts [4]	anti-Factor Xa activity of reference standard (factor Xa)
CDEFQRSTTY [CBPi]	minimal, through significant, levels of binding	Neither CBP nor CBPi binds	minimal, through significant, levels of binding	Neither CBP nor CBPi binds	Neither CBP nor CBPi binds	did not preserve endothelial cell adhesion	Minimal to no cells remain	did not result in any increase	–	–	–	–	–	–	–	–
CQDSETRTFY (not fully specified; also: biotin, place not given here; listed as Homo sapiens) [CBP]	minimal, through significant, levels of binding	Neither CBP nor CBPi binds	minimal, through significant, levels of binding	Neither CBP nor CBPi binds	Neither CBP nor CBPi binds	did not preserve endothelial cell adhesion; also recorded: Minimal to no cells remain	–	–	to a much lesser extent	colocalized with each subtype but was more prominent around collagen IV	–	–	–	–	–	–
Heparin sodium	–	–	–	–	–	decreased significantly	–	–	–	–	2.81±0.19 μg GAG/mg ECM	5.7±6.2%	Thick blood clots	612.1±126.0%	46.5±12.1 pg/mg ECM	200 U/mg
